In PMC9767416, “Discovery of small molecule mechanistic target of rapamycin inhibitors as anti-aging and anti-cancer therapeutics” (Frontiers in Aging Neuroscience, 2022):
Several values for one entry are separate records, joined by “and”; a condition that tells them apart may be missing. Identical values can stand only once.

Experiments:
[1] = test system: docetaxel (DTX)-induced senescent BJ cells; assay: Crystal violet and resazurin assays in docetaxel-induced senescent BJ; type: cell-based, human
Description: (§1) To obtain ionizing radiation (IR)-induced senescent cells, proliferating RPE-1 cells were exposed to a single dose of X-rays (20 Gy) using Pantak HF160 (Gulmay, Surrey, UK) X-ray instrument equipped with Pantak Seifert HF320 generator, MXR-161 X-ray tube (Comet AG, Flamatt, Switzerland), and an aluminum filter using current 1–10 mA. After irradiation, the cells were cultured for an additional 7 days until the development of the senescent phenotype ([Salovska et al., 2022]). To induce docetaxel-induced senescence (DIS), BJ cells were exposed to 5 nM docetaxel for 7 days, as described previously ([Sapega et al., 2018]). […]
(§2) For the crystal violet assay, the cells were washed twice with 150 μL PBS and stained with 30 μL 0.5% (w/v) crystal violet in 20% methanol for 15 mins. […] The absorbance was read at 595 nm using a microplate reader (Envision, PerkinElmer, Waltham, MA, USA). The absorbance of crystal violet in treated cells was expressed as a percentage of absorbance in untreated cells. Each condition was measured at least in triplicate.
(§3) For the resazurin assay, 200 μL of the culture medium of each well was exchanged for 100 μL of resazurin (stock solution 30 mg/mL; Sigma, St. Louis, MO, USA) diluted 10 times in the culture medium, and the cells were incubated at 37°C for 1–3 h. Reading of fluorescence was done using a microplate reader (PerkinElmer, Waltham, MA, USA). […]

BJ, RPE-1 and U373 cells = assay: Crystal violet and resazurin proliferation screen in proliferating cells; type: cell-based, human; settings: RPE-1, U373, 0, 10, 50, 80, 100 μM, 24 h
Description: All cell lines used in the study were obtained from the American Type Culture Collection (ATCC, Manassas, VA, USA). Human telomerase-immortalized retinal pigment epithelial cells RPE-1, glioblastoma U-87 MG, glioblastoma U373MG, glioblastoma T98G, glioblastoma A-172, breast adenocarcinoma MDA-MB-231, prostate carcinoma DU-145, and non-small cell lung cancer NCI-H1299 cell lines were cultured in Dulbecco’s modified Eagle’s medium (DMEM, Thermo Fisher Scientific, Waltham, MA, USA) with high glucose (4.5 g/L). Primary human skin BJ fibroblasts were cultured in Dulbecco’s modified Eagle’s medium (DMEM, Thermo Fisher Scientific, Waltham, MA, USA) with low glucose (1 g/L). Both cell culture media were supplemented with 10% fetal bovine serum (FBS, Gibco/Thermo Fisher Scientific) and non-essential amino acids (NEAA), 100 units/mL of penicillin, and 100 μg/mL of streptomycin (Sigma-Aldrich). Cells were kept at 37°C under a 5% CO2 atmosphere and 95% humidity.
(§4) Twenty-four hours before treatment, cells were plated in 96-well plates at densities of 2,850 cells per well for senescent RPE-1 (IR-RPE-1), 3,350 cells per well for proliferating RPE-1 and senescent BJ (DIS-BJ), and 5,000 cells per well for U373, T98, A172, U87, TMZ-U87, and proliferating BJ cells.
(§5) For the crystal violet assay, the cells were washed twice with 150 μL PBS and stained with 30 μL 0.5% (w/v) crystal violet in 20% methanol for 15 mins. Next, the plates were washed five times with ddH2O and left to dry overnight. Crystal violet was solubilized with 75 μL 0.2% Triton X-100 (Sigma) in PBS for 15 mins. The absorbance was read at 595 nm using a microplate reader (Envision, PerkinElmer, Waltham, MA, USA). The absorbance of crystal violet in treated cells was expressed as a percentage of absorbance in untreated cells. Each condition was measured at least in triplicate.
For the resazurin assay, 200 μL of the culture medium of each well was exchanged for 100 μL of resazurin (stock solution 30 mg/mL; Sigma, St. Louis, MO, USA) diluted 10 times in the culture medium, and the cells were incubated at 37°C for 1–3 h. Reading of fluorescence was done using a microplate reader (PerkinElmer, Waltham, MA, USA). Absolute values of fluorescence were related to the values of untreated cells. Each condition was measured at least in triplicate.

mTOR kinase = molecular target: T1, mTOR kinase (Homo sapiens, UniProt P42345); assay: In vitro mTOR kinase enzyme assay (Transcreener ADP2 FI); type: biochemical
T1 construct: purchased Invitrogen
Description: The mTOR enzyme assay was used to determine the mTOR kinase activity of compound 3. Enzymatic reaction mixture was prepared as follows: mTOR enzyme (10 μg/mL, Invitrogen), ATP (10 μM), p70S6K peptide (10 μg/mL, SignalChem), and kinase buffer (50 mM HEPES, pH 7.5, 1 mM EGTA, 3 mM MnCl2, 10 mM MgCl2, 2 mM DTT, and 0.01% Tween-20). The reaction was performed in black half-area 96-wells at room temperature for 1 h, then stopped by adding ADP detection buffer (Transcreener ADP^2 FI Assay, BellBrook labs) and incubated at room temperature for 1 h. Compound concentration was 10, 20, 40, 80, and 100 μM. The final DMSO concentration was 1%. PHERAstar microplate reader was used for measuring the fluorescence intensity (excitation 575 nm, emission 620 nm).

[2] = test system: temozolomide (TMZ)-induced senescent U87 cells; assay: Crystal violet and resazurin assays in TMZ-induced senescent U87; type: cell-based, human; settings: 0–100 μM, 24 h
Description: as §1, §2, §3

TMZ-U87 cells = assay: Time-lapse microscopy with annexin V of TMZ-induced senescent U87; type: cell-based, human; settings: 0–100 μM, 72 h
Description: (§6) To obtain ionizing radiation (IR)-induced senescent cells, proliferating RPE-1 cells were exposed to a single dose of X-rays (20 Gy) using Pantak HF160 (Gulmay, Surrey, UK) X-ray instrument equipped with Pantak Seifert HF320 generator, MXR-161 X-ray tube (Comet AG, Flamatt, Switzerland), and an aluminum filter using current 1–10 mA. After irradiation, the cells were cultured for an additional 7 days until the development of the senescent phenotype ([Salovska et al., 2022]). To induce docetaxel-induced senescence (DIS), BJ cells were exposed to 5 nM docetaxel for 7 days, as described previously ([Sapega et al., 2018]). To prepare temozolomide (TMZ)-induced senescence, U87 cells were exposed to 100 μM TMZ for 14 days.
(§7) For auto-monitoring of cells, Incucyte SX1 Live-Cell Analysis System (Sartorius, Göttingen, Germany), located in an incubator maintained at 37°C under a 5% CO2 atmosphere and 95% humidity, was utilized. The images (1,408 × 1,040 pixels at 1.24 microns/pixel) were acquired using a 10× objective lens in phase contrast, red fluorescence (excitation: 585 ± 20 nm, emission: 635 [625, 705] nm, acquisition time: 100 ms) channels every 60 min during 72 h. The first image was acquired 30 min after adding compounds. The images were processed to measure cell confluence using Incucyte software (version 2022A). […]

IR-RPE-1 senescent cells = assay: Time-lapse microscopy of IR-senescent RPE-1; type: cell-based, human; settings: 100 μM, 72 h
Description: as §6, §7

U87 cells = assay: Time-lapse microscopy with annexin V staining of proliferating U87; type: cell-based, human
Description: For auto-monitoring of cells, Incucyte SX1 Live-Cell Analysis System (Sartorius, Göttingen, Germany), located in an incubator maintained at 37°C under a 5% CO2 atmosphere and 95% humidity, was utilized. The images (1,408 × 1,040 pixels at 1.24 microns/pixel) were acquired using a 10× objective lens in phase contrast, red fluorescence (excitation: 585 ± 20 nm, emission: 635 [625, 705] nm, acquisition time: 100 ms) channels every 60 min during 72 h. The first image was acquired 30 min after adding compounds. The images were processed to measure cell confluence using Incucyte software (version 2022A). Annexin V – Dy647, Apronex (diluted 1:1,000) was used for apoptotic cell staining.

[3] = test system: IR-induced senescent RPE-1 cells; assay: Crystal violet and resazurin assays in IR-induced senescent RPE-1; type: cell-based, human
Description: as §6, §4, §5
For the resazurin assay, 200 μL of the culture medium of each well was exchanged for 100 μL of resazurin (stock solution 30 mg/mL; Sigma, St. Louis, MO, USA) diluted 10 times in the culture medium, and the cells were incubated at 37°C for 1–3 h. Reading of fluorescence was done using a microplate reader (PerkinElmer, Waltham, MA, USA). Absolute values of fluorescence were related to the values of untreated cells. Each condition was measured at least in triplicate. […]

Nc1ccc(C(=O)Nc2cccc(-c3c[nH]c4ncccc34)c2)cc1O [Compound 3, N-(3-(1H-pyrrolo[2,3-b]pyridin-3-yl)phenyl)-4-amino-3-hydroxybenzamide]
selectivity for senescent versus proliferating cells ([1]; DIS-BJ vs proliferating BJ, crystal violet and resazurin): non-selective manner | sensitivity of senescent cells (crystal violet and resazurin) ([1]; DTX-induced senescent BJ, 0–100 μM, 24 h): significantly sensitive | effect on the readout of crystal violet and resazurin assays (BJ, RPE-1 and U373 cells): significant suppressive effect | IC50 (mTOR kinase; ATP 10 μM, p70S6K peptide, 1 h): ~70 µM and 70 µM | inhibition of mTOR kinase activity (mTOR kinase; at 100 μM): complete inhibition | concentration from which mTOR kinase activity is inhibited (mTOR kinase; tested at 10, 20, 40, 80, 100 μM): 10 µM | effect on the readout of crystal violet and resazurin assays [2]: similarly to proliferating U87 cells | cell phenotype in time-lapse microscopy, annexin V staining (TMZ-U87 cells): loss of cell adhesion followed by cell death | kind of effect on senescent cells (IR-RPE-1 senescent cells): rather senomorphic than senolytic effect | cell phenotype in time-lapse microscopy (U87 cells; proliferating U87, 100 μM, 72 h): rapid loss of cell spreading with a lack of mitotic activity and progressively occurring cell death | induction of apoptosis (annexin V staining) (U87 cells; time-lapse microscopy 72 h, 0–100 μM, Figure 5G): confirmed | selectivity for senescent versus proliferating cells ([3]; IR-RPE-1 vs proliferating RPE-1, crystal violet and resazurin): non-selective manner | sensitivity of senescent cells (crystal violet and resazurin) ([3]; IR-induced senescent RPE-1, 0–100 μM, 24 h): significantly sensitive
